We go through 9 compounds from article PMC8443696, “Structural determinants and regulation of spontaneous activity in GABAA receptors” (Nature Communications, 2021).

Where “and” joins values, the source holds several entries; their conditions need not be identical. Equal entries are not always repeated. Where two headings read alike, the source gives them in different places.

Assay [1] has as its system cultured hippocampal neurons. The experiment in a line: Voltage clamp of spontaneous/tonic GABAAR currents in transfected cultured hippocampal neurons. Type of assay: cell-based, rat. Particulars: for spontaneous/tonic current, Supp. Fig. 4e: concanamycin treated (vs control), individual cells; for Effect on holding current: gabazine 1 μM. As for the experimental part: This media was replaced 2 h later with neurobasal-A media supplemented with 1% v/v B-27, 50 units/ml penicillin-G, 50 µg/ml streptomycin, 0.5% v/v glutamax and 35 mM glucose. These cells were transfected 6–8 days later using either the calcium phosphate protocol described above, or Effectene with a protocol as described by the manufacturer (Qiagen) using a total 0.8 μg of cDNA per coverslip. […] Neurons were used for electrophysiological recording or confocal imaging 5–9 days later.
(§1) Currents were acquired with Clampex ver.
(§2) Recordings from hippocampal cultures used ~3–5 MΩ electrodes filled with an internal solution consisting of (mM): 140 CsCl, 2 NaCl, 10 HEPES, 5 EGTA, 2 MgCl2, 0.5 CaCl2, 2 Na2ATP, 0.5 Na2GTP, 2 QX-314, pH 7.3. Osmolarity was 300 ± 20 mOsm/L. Cells were perfused in the same Kreb’s solution described above, except for the addition of 2 mM kynurenic acid. Cells were voltage clamped at −60 mV. For current clamp, cells were recorded using an internal electrode solution consisting of (mM): 137 potassium gluconate, 3 KCl, 10 HEPES, 5 EGTA, 0.5 CaCl2, 2 MgCl2, 2 Na2ATP and 0.5 Na2GTP, pH 7.3. Osmolarity was 300 ± 20 mOsm/L. The external solution was as described for voltage-clamp experiments and the calculated junction potential was ~15 mV. Current was injected to hold cells at −70 mV if required. For slice recordings, slices were perfused in the aCSF described above, and the internal solution was the same as that used for cultured neuronal voltage-clamp recordings.

Assay [2] concerns α4β3δ receptors. In kind it is cell-based, mouse. Also on record: spontaneous activity, Supp. Fig. 3e: unit not given here. The note with it: for Ispont during staurosporine application: 200 nM staurosporine.
Description: (§3) All components were obtained from Life Technologies.
as §1
(§4) Cells were voltage clamped at −40 mV.
(§5) For assessment of the efficacy of allosteric modulators on spontaneous activity, compounds were briefly applied (3–5 s) to achieve steady-state currents (IMod). […] The IMod was summed with IPTX (or subtracted for inhibitory modulators) and the Ispont calculated, as described by Eq. (2):2 Ispont(%)=[(IPTX+IMod)/(IPTX+IMax)]×100……………………………………

In assay [3] the test system is dorsal lateral geniculate nucleus (dLGN) thalamic relay neurons. The experiment in a line: Tonic current in acute thalamic brain slices.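 For tonic current change with +PTX, Fig. 10b: Holding current density change on antagonist application.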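 For tonic current change with Gabazine, Fig. 10b: Holding current density change on antagonist application.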 Type of assay: cell-based, rat.
Description: (§6) Adolescent male rats (P21–P28) were anaesthetised by inhalation with 5% isoflurane before dispatch and isolation of the brain in accordance with the United Kingdom Animals (Scientific Procedures) Act 1986. The brain was immersed in an ice-cold slicing solution containing (mM): 85 NaCl, 2.5 KCl, 1.25 NaH2PO4, 26 NaHCO3, 75 sucrose, 1 CaCl2, 4 MgCl2, 25 glucose and 2 kynurenic acid, (pH 7.4 when bubbled with 95% O2/5% CO2). Horizontal (hippocampal) and coronal (thalamic) sections (all 350 µm thick) were cut using a Leica VT1200S vibratome before transfer to a holding chamber at 37 °C. The solution was slowly exchanged over 1 h with aCSF containing (mM): 125 NaCl, 2.5 KCl, 1.25 NaH2PO4, 26 NaHCO3, 2 CaCl2, 1 MgCl2, 25 glucose and 2 kynurenic acid (pH 7.4 when bubbled with 95% O2/5% CO2) before maintaining the slices at room temperature prior to recording.
as §1, §2

In assay [4] the test system is dentate gyrus granule cells (DGGCs). As to the kind of experiment: Tonic current in acute hippocampal brain slices.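 For tonic current change with +PTX, Fig. 10a: Holding current density change on antagonist application.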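 For tonic current change with Gabazine, Fig. 10a: Holding current density change on antagonist application.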 Type of assay: cell-based, rat. Particulars: for Change in holding current: DGGCs.
Description: as §6, §1, §2

Assay [5] concerns T1, α4β3δ GABAARs.
T1 construct: expressed in transfected cells; host or cells: HEK cells (outside-out patches)
As to the kind of experiment: Single-channel recording of spontaneous currents, outside-out patches of HEK cells. In kind it is cell-based, mouse. Particulars: 100 μM PTX, absence of GABA. As for the experimental part:
To limit ion channel density in individual patches, HEK cells were transfected with 5 ng α4, β3, δ and eGFP cDNAs. Resulting spontaneous single-channel currents were digitised at a sampling rate of 20 kHz and filtered at 5 kHz with a 4-pole Bessel filter (24 dB per octave). A fixed time resolution of 80 μs was used as a preset. Recordings were undertaken using thick-walled borosilicate patch pipettes (6–10 MΩ) filled with a solution containing (mM): 145 CsCl, 2.5 NaCl, 10 HEPES, 1 EGTA, 4 MgATP, pH 7.3. Osmolarity was 300 ± 20 mOsm/L. Cells were perfused with an external solution consisting of (mM): 145 NaCl, 2.5 KCl, 1 CaCl2, 1 MgCl2, 10 HEPES, 10 glucose, pH 7.3. Prior control recordings were obtained using untransfected HEK cells to identify endogenous channel currents.
Channel currents were digitally low pass filtered at 1–2 kHz prior to analysis. […] Channel dwell states were identified using a threshold cursor method. This state transition detection method for open and shut events was used to assemble an idealised record of the digitised data. Open times affected by channel stacking were not included in the analyses and sub-conductance states were also rare and excluded from the analysis.
The analysis of the dwell times for single-channel currents was performed by fitting a mixture of exponential components to the open time distributions. These defined the mean open times and their relative proportions (area of the components) based on using a Levenberg-Marquardt non-linear least-squares routine (WinEDR ver 3.8.7, courtesy of J Dempster, University of Strathclyde).

Assay [6] relates to β3 homomeric receptors.
Description: HEK 293 cells were maintained in Dulbecco’s modified Eagle’s medium supplemented with 10% v/v heat-inactivated fetal calf serum, 100 units/ml penicillin-G and 100 µg/ml streptomycin and incubated at 37 °C in humidified 95% air/5% CO2. […] Cells were maintained within a passage range of P12–35. Dissociated HEK cells were plated onto 22 mm glass coverslips (VWR) coated in poly-L-lysine (Sigma). Cells were transfected >1 h later using a calcium phosphate protocol whereby a transfection solution was prepared consisting of 20 μl of 340 mM CaCl2, 24 μl of 2× HBS (50 mM HEPES, 280 mM NaCl, 2.8 mM Na2HPO4) and 4 μg cDNA per coverslip. […] Cells were recorded from 24–48 h later.
For all electrophysiological experiments, cells were visualised using a Nikon Eclipse E600FN microscope. Whole-cell currents were recorded using an Axopatch 200B amplifier and digitised using a Digidata 1322 A (Axon Instruments). […]
HEK cells were recorded from using borosilicate glass electrodes with resistances ~3–5 MΩ when filled with an internal solution containing (mM): 1 MgCl2, 140 KCl, 11 EGTA, 10 HEPES, 1 CaCl2, 2 K2ATP, pH 7.2. Osmolarity was 300 ± 20 mOsm/L, measured using a vapour pressure osmometer (Model 5520, Wescor Inc). […]
For assay [7], the target named is T2, α4β3δ receptors (UniProt P18506+P63080+Q9D6F4).
T2 construct: expressed in transfected cells; host or cells: HEK 293
T2 sequence (Q9D6F4 36-552): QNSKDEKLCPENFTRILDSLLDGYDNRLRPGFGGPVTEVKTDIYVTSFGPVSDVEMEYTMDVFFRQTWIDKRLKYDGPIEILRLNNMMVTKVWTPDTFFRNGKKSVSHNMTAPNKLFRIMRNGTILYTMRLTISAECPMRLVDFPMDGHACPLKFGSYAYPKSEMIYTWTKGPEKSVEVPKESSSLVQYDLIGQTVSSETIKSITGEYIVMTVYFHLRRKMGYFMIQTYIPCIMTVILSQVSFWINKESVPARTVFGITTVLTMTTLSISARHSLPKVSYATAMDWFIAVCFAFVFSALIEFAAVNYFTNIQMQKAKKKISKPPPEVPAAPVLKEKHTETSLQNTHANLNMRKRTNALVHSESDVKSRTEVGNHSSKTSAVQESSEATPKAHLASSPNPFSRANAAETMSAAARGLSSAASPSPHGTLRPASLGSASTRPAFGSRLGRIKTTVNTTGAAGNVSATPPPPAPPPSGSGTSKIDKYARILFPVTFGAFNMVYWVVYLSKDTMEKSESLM
T2 sequence (P63080 26-473): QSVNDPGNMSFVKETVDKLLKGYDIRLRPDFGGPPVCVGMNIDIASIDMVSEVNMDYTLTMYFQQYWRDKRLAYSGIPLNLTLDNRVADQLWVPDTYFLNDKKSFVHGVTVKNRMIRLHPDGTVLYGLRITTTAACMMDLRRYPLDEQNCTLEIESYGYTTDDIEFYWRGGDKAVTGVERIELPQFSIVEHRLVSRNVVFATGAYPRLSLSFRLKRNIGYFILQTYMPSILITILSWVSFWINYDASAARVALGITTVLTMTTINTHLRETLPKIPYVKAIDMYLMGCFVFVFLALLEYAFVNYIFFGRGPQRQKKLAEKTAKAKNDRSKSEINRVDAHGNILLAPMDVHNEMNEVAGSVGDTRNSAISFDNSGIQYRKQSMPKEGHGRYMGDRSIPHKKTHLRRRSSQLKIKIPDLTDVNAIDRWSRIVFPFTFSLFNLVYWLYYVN
T2 sequence (P18506 25-449): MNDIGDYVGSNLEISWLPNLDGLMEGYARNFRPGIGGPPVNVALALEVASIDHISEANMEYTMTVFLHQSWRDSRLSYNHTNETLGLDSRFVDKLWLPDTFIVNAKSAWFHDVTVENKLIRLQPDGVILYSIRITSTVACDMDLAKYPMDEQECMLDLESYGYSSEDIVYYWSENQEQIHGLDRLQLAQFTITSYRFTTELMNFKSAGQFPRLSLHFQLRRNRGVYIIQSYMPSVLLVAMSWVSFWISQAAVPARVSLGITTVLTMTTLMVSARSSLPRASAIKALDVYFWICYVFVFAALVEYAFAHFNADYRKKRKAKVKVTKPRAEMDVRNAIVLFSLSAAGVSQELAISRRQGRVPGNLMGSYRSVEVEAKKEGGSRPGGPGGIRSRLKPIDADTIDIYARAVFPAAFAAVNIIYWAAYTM
In kind it is cell-based, mouse. The arrangement: spontaneous activity, Supp. Fig. 3e: unit not given here. Particulars: cells expressing α4, β3 and δ; gabazine 1 µM.
Description: as §3, §1, §4, §5

Assay [8] has as its system T3, α4β3^S408D,S409Dδ receptors.
T3 construct: expressed in transfected cells; host or cells: HEK 293
The experiment in a line: Quantification of spontaneous activity (Ispont) in HEK cells, whole-cell patch clamp. Type of assay: cell-based, mouse. Particulars: for Ispont during staurosporine application: α4β3S408D,S409Dδ, 200 nM staurosporine, individual cells.
Description: as §3, §1, §4
In general terms: In patch-clamp work, channel activity is measured electrically.

In assay [9] the test system is T4, α4β3^S408A,S409Aδ receptors.
T4 construct: expressed in transfected cells; host or cells: HEK 293
The description is as above. In kind it is cell-based, mouse. Particulars: for Ispont during staurosporine application: α4β3S408A,S409Aδ, 200 nM staurosporine, individual cells.
Description: as §3, §1, §4

The subject of assay [10] is T5, α4β3 receptors.
T5 construct: expressed in transfected cells; host or cells: HEK 293
As to the kind of experiment: Agonist-evoked whole-cell currents and their modulation by Zn2+ / DS2 in HEK cells. Type of assay: cell-based, mouse. The note with it: GABA with DS2, individual cells. Also on record: GABA current, Supp. Fig. 2b / GABA + DS2 current, Supp. Fig. 2b / GABA current, Supp. Fig. 2a: unit not given here.
Description: as §3, §1, §4

The target of assay [11] is T2, α4β3δ receptors. The description is as above. In kind it is cell-based, mouse.
Description: as §3, §1, §4

Where [12] appears, read: eGFP- and β3-expressing neurons, concanamycin A 0.5 μM.
Setting [13] is: PTX added after Gabazine, individual cells.
[14] abbreviates: Gabazine alone, individual cells.

Turning to `C/C=C/[C@H]1O[C@@](O)([C@@H](C)[C@H](O)[C@H](C)[C@H]2OC(=O)/C(OC)=C/C(C)=C/[C@@H](C)[C@@H](O)[C@@H](CC)[C@@H](O)[C@H](C)C/C(C)=C/C=C/[C@@H]2OC)C[C@@H](O[C@H]2C[C@@H](O)[C@H](OC(N)=O)[C@@H](C)O2)[C@@H]1C` [concanamycin A], the “spontaneous/tonic current, Supp. Fig. 4e” value in assay [1] (eGFP neurons) is 1.043 and 0.1205 and 0.1429 and 0.1839 and 0.303 and 0.1613 and 0.3626 and 0.3579; in assay [1] (β3 neurons), 1.595 and 1.13 and 1.667 and 1.221 and 1.725 and 1.692. The “Effect on IPSCs” value in assay [1] (setting [12]) is “abolished”. For the same compound, in assay [1] (setting [12]), the “Effect on PTX-sensitive spontaneous currents” value is “without affecting”.
In the case of `CN([C@@H](Cc1ccc(OS(=O)(=O)c2cccc3cnccc23)cc1)C(=O)N1CCN(c2ccccc2)CC1)S(=O)(=O)c1cccc2cnccc12` [KN-62], in assay [2] (KN-62 treated (vs control), individual cells), the “spontaneous activity, Supp. Fig. 3e” value is 9.722 and 13.6922 and 18.602 and 3.467 and 9.093 and 9.783 and 14.5969 and 3.449 and 5.659. For the same compound, the “Effect on Ispont of internally applied CaMKII inhibitor” value in [2] (α4β3δ, KN-62 3 µM internal) is “no effect”.
Consider picrotoxin [PTX], for which the “tonic current change with +PTX, Fig. 10b” value in assay [3] (setting [13]) was 0.2529 and 0.032 and 0.04 and 0.1019 and 0.1492 and 0.1027 and 0.03878 and 0.06433 and 0.1595 and 0.03636. Further, the “Effect on residual tonic current” value in assay [3] (dLGN thalamic relay neurons, PTX 100 μM after gabazine) is “blocked”. The “Change in holding current” value in [4] (PTX 100 μM after gabazine) is reported as “large reduction in holding current”. The “tonic current change with +PTX, Fig. 10a” value in assay [4] (setting [13]) was 0.1792 and 0.4018 and 0.1492 and 0.2163 and 0.07528 and 0.1359 and 0.2209 and 0.2596 and 0.5835. Also, the “Effect on spontaneous single-channel currents” value in assay [5] is “blocked”.
“PKA inhibitor peptide 14–22: selective PKA inhibitor peptide (GRTGRRNAI; UniProt P61925 15-23, looked up, fragment)”: the “Ispont with PKA inhibitor in the patch electrode solution” value in assay [2] (α4β3δ, PKI 1 μM internal, 2 min dialysis (Fig. 5d)) is “significantly reduced”.
As for `COc1ccc(-c2ccc(=N)n(CCCC(=O)O)n2)cc1` [gabazine], in assay [3] (setting [14]), the “tonic current change with Gabazine, Fig. 10b” value was 0.2002 and 0.032 and 0.025 and 0.02996 and 0.07463 and 0.08562 and 0.04525 and 0.03574 and -0.03067 and 0.01818. Further, in assay [3] (dLGN thalamic relay neurons, gabazine 20 µM), the “Effect on tonic current” value was “part-inhibited”. In addition, the “Change in holding current” value in [4] (gabazine 20 µM) was “small increments in holding current”. In addition, the “tonic current change with Gabazine, Fig. 10a” value in [4] (setting [14]) was -0.04645 and -0.07728 and -0.0199 and 0.08319 and 0 and -0.01133 and -0.01699 and -0.02885 and -0.01144. For the same compound, the “Effect on spontaneous holding current” value is recorded as “but not with β3 alone” in assay [6] (β3 alone, gabazine 1 µM) and “behaved as an inverse agonist” in [7]. The “Effect on holding current” value in assay [1] (eGFP-transfected neurons) is given as “small agonist effect”; in assay [1] (β3-transfected neurons) it was “partial antagonism”.
For the compound `CN[C@@H]1C[C@H]2O[C@@](C)([C@@H]1OC)n1c3ccccc3c3c4c(c5c6ccccc6n2c5c31)C(=O)NC4` [staurosporine], the “Effect on Ispont over 20 min compared to control” value in assay [8] (phosphomimetic α4β3^S408D,S409Dδ, staurosporine 200 nM) is recorded as “no effect”; in assay [9] (phospho-null α4β3^S408A,S409Aδ, staurosporine 200 nM), “no effect”. The “Ispont during staurosporine application” value in assay [8] (time 1 min) was 12.5% and 12.6%; in assay [8] (time 10 min), 11.9% and 9.4% and 7.9%; in assay [8] (time 20 min) it was 8.8% and 8.7% and 7.1%; in [9] (time 1 min) it was 7.3% and 8.9% and 6.5% and 29.4%; in assay [9] (time 10 min) it was 5.4% and 6.9% and 9.5% and 5.6% and 26.6%; in assay [9] (time 20 min), 5.7% and 5.8% and 7.2% and 5%. For the same compound, the “Ispont during staurosporine application” value was “decreased significantly and 13.2% and 6.4% and 6.3%” in assay [2] (α4β3δ, time 1 min, individual cells); 9.3% and 12.3% and 3.2% and 4.6% in assay [2] (α4β3δ, time 10 min, individual cells); 7.5% and 8% and 2.3% and 3.8% in [2] (α4β3δ, time 20 min, individual cells).
For the compound `CCCC(C)C1(CC)C(=O)NC(=O)NC1=O` (stereo not drawn) [pentobarbital], the “Whole-cell current evoked by pentobarbital” value in [6] (β3, 100 µM pentobarbital, n = 11) amounted to 220 ± 94 pA.
Take `CN(C)CCCn1cc(C2=C(c3c[nH]c4ccccc34)C(=O)NC2=O)c2ccccc21` [bisindolylmaleimide-I]: the “Ispont with PKC inhibitor in the patch electrode solution” value in [2] (α4β3δ, Bis-I 200 nM internal, 2 min dialysis (Fig. 5e)) is given as “significantly reduced”.
In the case of `O=C(Nc1c(-c2cccs2)nc2ccccn12)c1ccc(Cl)cc1` [DS2], the “GABA + DS2 current, Supp. Fig. 2b” value in assay [10] is 0.04 and 0.14 and 0.11 and 0.09 and 0.26; in assay [11] (GABA with DS2, individual cells) it was 1.82 and 1.25 and 0.43 and 1.45 and 3.44. The “Effect on 0.3 μM GABA responses” value in assay [11] (DS2 5 μM) is “potentiated”.
